Measurements published in ChEMBL document CHEMBL1132553, “Design, synthesis, and biological evaluation of matrix metalloproteinase inhibitors derived from a modified proline scaffold” (J Med Chem, 1999).

How the values were obtained:
[1] = biological target: 72 kDa type IV collagenase (Homo sapiens, UniProt P08253)
Description: In vitro inhibitory activity against gelatinase-A (matrix metalloprotease-2).

Stromelysin-1 = Stromelysin-1 (Homo sapiens, UniProt P08254); test: In vitro inhibition activity of human recombinant stromelysin (Matrix metalloprotease-3)
Matrilysin = biological target: T1, Matrilysin (Homo sapiens, UniProt P09237); test: In vitro inhibition of matrilysin (Matrix metalloprotease-7, MMP-7)
T1 sequence (P09237 whole entry): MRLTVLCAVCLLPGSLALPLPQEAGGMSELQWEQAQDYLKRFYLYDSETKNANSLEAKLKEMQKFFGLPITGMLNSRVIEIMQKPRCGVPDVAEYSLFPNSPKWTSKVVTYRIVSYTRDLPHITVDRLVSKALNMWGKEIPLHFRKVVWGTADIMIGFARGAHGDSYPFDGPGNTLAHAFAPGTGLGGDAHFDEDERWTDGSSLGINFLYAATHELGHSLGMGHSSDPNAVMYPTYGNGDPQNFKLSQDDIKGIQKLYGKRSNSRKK

Collagenase 3 = Collagenase 3 (Homo sapiens, UniProt P45452); test: In vitro inhibition of human recombinant collagenase-3 (Matrix metalloprotease-13)
Interstitial collagenase = biological target: T2, Interstitial collagenase (Homo sapiens, UniProt P03956); test: In vitro inhibition of human recombinant collagenase-1 (Matrix metalloprotease-1, MMP-1)
T2 sequence (P03956 whole entry): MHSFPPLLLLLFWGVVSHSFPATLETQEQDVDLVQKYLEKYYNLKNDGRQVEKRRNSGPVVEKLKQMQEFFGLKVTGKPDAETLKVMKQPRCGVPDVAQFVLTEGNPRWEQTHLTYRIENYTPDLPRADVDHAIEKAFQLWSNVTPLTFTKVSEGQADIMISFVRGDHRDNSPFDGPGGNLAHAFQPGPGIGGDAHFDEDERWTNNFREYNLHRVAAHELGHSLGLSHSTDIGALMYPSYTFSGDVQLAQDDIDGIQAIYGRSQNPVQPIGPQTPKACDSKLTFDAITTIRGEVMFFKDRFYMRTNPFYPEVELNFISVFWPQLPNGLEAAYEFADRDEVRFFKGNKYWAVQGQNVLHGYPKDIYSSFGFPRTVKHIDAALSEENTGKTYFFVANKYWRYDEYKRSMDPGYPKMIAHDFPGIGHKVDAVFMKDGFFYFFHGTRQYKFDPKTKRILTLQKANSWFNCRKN

Rattus norvegicus [2] = species on record: Rattus norvegicus; test: In vitro percent permeability into rat ileum; Range is 13-19; format: ADME; details: in vivo
Rattus norvegicus [3] = species on record: Rattus norvegicus; test: In vitro percent permeability into rat ileum; Range is 78-81; format: ADME; details: in vivo
[4] = In vitro percent permeability into rat ileum; Range is 23-42; format: ADME, tissue-based
Rattus norvegicus [5] = species on record: Rattus norvegicus; test: In vitro percent permeability into rat ileum; Range is 10-17; format: ADME; details: in vivo
Rattus norvegicus [6] = species on record: Rattus norvegicus; test: In vitro percent permeability into rat ileum; nd indicates not detected; format: ADME; details: in vivo
Rattus norvegicus [7] = species on record: Rattus norvegicus; test: In vitro percent permeability into rat ileum; nt indicates not detected; format: ADME; details: in vivo
Rattus norvegicus [8] = species on record: Rattus norvegicus; test: In vitro percent permeability into rat ileum; insol indicates not soluble in aqueous buffer; format: ADME
Rattus norvegicus [9] = species on record: Rattus norvegicus; test: In vitro percent permeability into rat ileum; Range is 10-19; format: ADME; details: in vivo
Rattus norvegicus [10] = species on record: Rattus norvegicus; test: In vitro percent permeability into rat ileum; Range is 14-17; format: ADME; details: in vivo
Rattus norvegicus [11] = species on record: Rattus norvegicus; test: In vitro percent permeability into rat ileum; Range is 46-66; format: ADME; details: in vivo
Rattus norvegicus [12] = species on record: Rattus norvegicus; test: In vitro percent permeability into rat ileum; Range is 50-68; format: ADME; details: in vivo
Rattus norvegicus [13] = species on record: Rattus norvegicus; test: In vitro percent permeability into rat ileum; Range is 12-15; format: ADME; details: in vivo
Rattus norvegicus [14] = species on record: Rattus norvegicus; test: In vitro percent permeability into rat ileum; Range is 28-36; format: ADME; details: in vivo
Rattus norvegicus [15] = species on record: Rattus norvegicus; test: In vitro percent permeability into rat ileum; Range is 15-18; format: ADME; details: in vivo
Rattus norvegicus [16] = species on record: Rattus norvegicus; test: In vitro percent permeability into rat ileum; Range is 29-35; format: ADME; details: in vivo
Rattus norvegicus [17] = species on record: Rattus norvegicus; test: In vitro percent permeability into rat ileum; Range is 2-5; format: ADME; details: in vivo
Rattus norvegicus [18] = species on record: Rattus norvegicus; test: In vitro percent permeability into rat ileum; format: ADME; details: in vivo

72 kDa type IV collagenase, sequence (P08253 whole entry): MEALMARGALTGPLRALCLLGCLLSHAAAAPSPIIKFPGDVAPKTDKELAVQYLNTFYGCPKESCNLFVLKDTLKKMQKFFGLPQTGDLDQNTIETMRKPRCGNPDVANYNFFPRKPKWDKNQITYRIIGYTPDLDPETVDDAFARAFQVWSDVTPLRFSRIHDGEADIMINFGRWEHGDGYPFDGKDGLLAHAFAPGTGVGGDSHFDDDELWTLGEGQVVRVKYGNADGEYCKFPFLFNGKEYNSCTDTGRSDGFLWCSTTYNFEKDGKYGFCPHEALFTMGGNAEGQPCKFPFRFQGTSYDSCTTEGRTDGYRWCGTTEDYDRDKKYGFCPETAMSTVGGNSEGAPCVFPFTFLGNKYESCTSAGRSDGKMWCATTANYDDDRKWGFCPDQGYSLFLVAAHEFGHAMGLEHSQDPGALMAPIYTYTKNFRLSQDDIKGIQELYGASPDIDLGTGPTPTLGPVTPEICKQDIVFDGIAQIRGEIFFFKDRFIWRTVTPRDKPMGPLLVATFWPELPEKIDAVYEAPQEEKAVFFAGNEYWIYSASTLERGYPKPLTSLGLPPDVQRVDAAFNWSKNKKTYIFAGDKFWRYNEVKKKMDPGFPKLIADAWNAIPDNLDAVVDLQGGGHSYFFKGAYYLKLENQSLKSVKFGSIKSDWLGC
Stromelysin-1, sequence (P08254 whole entry): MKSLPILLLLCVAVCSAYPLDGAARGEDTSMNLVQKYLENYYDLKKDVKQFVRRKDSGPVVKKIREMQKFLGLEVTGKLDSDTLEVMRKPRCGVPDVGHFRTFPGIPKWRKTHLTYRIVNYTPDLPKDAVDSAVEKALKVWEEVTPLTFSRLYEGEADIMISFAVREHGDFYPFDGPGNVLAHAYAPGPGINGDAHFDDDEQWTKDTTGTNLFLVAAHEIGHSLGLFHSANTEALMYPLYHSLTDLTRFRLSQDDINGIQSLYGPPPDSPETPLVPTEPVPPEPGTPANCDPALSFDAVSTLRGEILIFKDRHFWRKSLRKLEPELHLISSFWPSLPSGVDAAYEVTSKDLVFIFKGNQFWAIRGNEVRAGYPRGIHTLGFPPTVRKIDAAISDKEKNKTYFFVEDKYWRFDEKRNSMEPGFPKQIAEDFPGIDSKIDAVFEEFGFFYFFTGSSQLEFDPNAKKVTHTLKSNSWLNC

| IC50 [1] [µM] | IC50 (Stromelysin-1) [µM] | IC50 (Matrilysin) [µM] | IC50 (Collagenase 3) [µM] | IC50 (Interstitial collagenase) [µM] | SMILES | also measured |
| --- | --- | --- | --- | --- | --- | --- |
| 0.0007 | 0.009 | 0.263 | < 0.0005 | 0.02 | COc1ccc(S(=O)(=O)N2C/C(=N\OC(C)(C)C)C[C@@H]2C(=O)NO)cc1 | Absorption (Rattus norvegicus [2]): 19% |
| < 0.001 | 0.003 | 0.082 | < 0.0005 | 0.01 | CO/N=C1/C[C@H](C(=O)NO)N(S(=O)(=O)c2ccc(OC)cc2)C1 | Absorption (Rattus norvegicus [3]): 81% |
| 0.0003 | 0.016 | 1.06 | 0.0007 | 0.022 | CCOc1ccc(S(=O)(=O)N2C/C(=N\OC)C[C@@H]2C(=O)NO)cc1 | Absorption [4]: 42% |
| < 0.0004 | 0.002 | 0.039 | 0.0005 | 0.039 | CCCCOc1ccc(S(=O)(=O)N2C/C(=N\OCC)C[C@@H]2C(=O)NO)cc1 | Absorption (Rattus norvegicus [5]): 17% |
| 0.004 | 0.02 | 5.23 | 0.003 | 0.255 | COc1ccc(S(=O)(=O)N2CC(NOC(C)(C)C)C[C@@H]2C(=O)NO)cc1 (some centres undefined) |  |
| 0.0005 | 0.011 | 0.294 | 0.0004 | 0.074 | CCCCOc1ccc(S(=O)(=O)N2C/C(=N\OC(C)(C)C)C[C@@H]2C(=O)NO)cc1 | Absorption (Rattus norvegicus [7]): None detected |
| 0.0005 | 0.015 | 0.612 | < 0.0004 | 0.109 | COCCOc1ccc(S(=O)(=O)N2C/C(=N\OC)C[C@@H]2C(=O)NO)cc1 |  |
| 0.011 | 0.222 | 6.72 | 0.008 |  | COCCOc1ccc(S(=O)(=O)N2CC(NOC)C[C@@H]2C(=O)NO)cc1 (some centres undefined) |  |
| 0.001 | 0.021 | 2.08 | 0.002 | 0.79 | CCCCOc1ccc(S(=O)(=O)N2CC(NOC)C[C@@H]2C(=O)NO)cc1 (some centres undefined) | Absorption (Rattus norvegicus [10]): 17% |
| < 0.0004 | 0.005 | 0.785 | < 0.0004 | 0.026 | CC(C)(C)O/N=C1/C[C@H](C(=O)NO)N(S(=O)(=O)c2ccc(Oc3ccncc3)cc2)C1 |  |
| 0.009 | 0.069 | > 9.99 | 0.011 | 1.55 | C=C1C[C@H](C(=O)NO)N(S(=O)(=O)c2ccc(OCCOC)cc2)C1 |  |
|  |  | 12.3 | 0.004 | 0.09 | C=C1C[C@H](C(=O)NO)N(S(=O)(=O)c2ccc(OC)cc2)C1 | Absorption (Rattus norvegicus [11]): 66% |
| 0.005 | 0.019 | 3.39 | 0.003 | 0.212 | CONC1C[C@H](C(=O)NO)N(S(=O)(=O)c2ccc(OC)cc2)C1 (some centres undefined) | Absorption (Rattus norvegicus [13]): 15% |
| < 0.0004 | < 0.001 | < 0.024 | 0.0008 | 0.003 | CO/N=C1/C[C@H](C(=O)NO)N(S(=O)(=O)c2ccc(Oc3ccc(F)cc3)cc2)C1 |  |
| < 0.001 | 0.001 | 0.089 | 0.0003 | 0.026 | CCCCOc1ccc(S(=O)(=O)N2C/C(=N\OC)C[C@@H]2C(=O)NO)cc1 | Absorption (Rattus norvegicus [14]): 36% |
| < 0.0004 | 0.002 | 0.381 | < 0.001 | 0.013 | CCCOc1ccc(S(=O)(=O)N2C/C(=N\OC)C[C@@H]2C(=O)NO)cc1 |  |
| < 0.0004 | 0.002 | 0.06 | < 0.0004 | 0.003 | CO/N=C1/C[C@H](C(=O)NO)N(S(=O)(=O)c2ccc(Oc3ccccc3)cc2)C1 | Absorption (Rattus norvegicus [15]): 18% |
| 0.0002 | 0.005 |  | 0.0002 | 0.017 | COc1ccc(S(=O)(=O)N2C/C(=N\O)C[C@@H]2C(=O)NO)cc1 | Absorption (Rattus norvegicus [16]): 35% |
| 0.0002 | 0.005 | 0.307 | 0.0003 | 0.119 | CCCCOc1ccc(S(=O)(=O)N2C/C(=N\O)C[C@@H]2C(=O)NO)cc1 | Absorption (Rattus norvegicus [17]): 5% |
| 0.002 | 0.016 | 2.55 | 0.001 | 0.155 | C=C1C[C@H](C(=O)NO)N(S(=O)(=O)c2ccc(OCCC)cc2)C1 |  |

| SMILES | IC50 [1] [µM] | IC50 (Stromelysin-1) [µM] | IC50 (Matrilysin) [µM] | IC50 (Collagenase 3) [µM] | IC50 (Interstitial collagenase) [µM] | also measured |
| --- | --- | --- | --- | --- | --- | --- |
| C=C1C[C@H](C(=O)NO)N(S(=O)(=O)c2ccc(OCCCC)cc2)C1 | 0.0008 | 0.015 | 1.08 | 0.0007 | 0.329 |  |
| CONC1C[C@H](C(=O)NO)N(S(=O)(=O)c2ccc(Oc3ccccc3)cc2)C1 (some centres undefined) | < 0.0004 | 0.006 | 1.79 | < 0.0004 | 0.086 |  |
| O=C(NO)[C@H]1C/C(=N/Oc2ccccc2)CN1S(=O)(=O)c1ccc(Oc2ccncc2)cc1 |  | 0.005 | 0.785 | 0.0004 | 0.032 | Absorption (Rattus norvegicus [6]): None detected |
| CCCCOc1ccc(S(=O)(=O)N2C/C(=N\OCC(C)C)C[C@@H]2C(=O)NO)cc1 | < 0.0004 | 0.012 | 0.42 | < 0.0001 | 0.075 |  |
| CC(C)(C)O/N=C1/C[C@H](C(=O)NO)N(S(=O)(=O)c2ccc(Oc3ccc(F)cc3)cc2)C1 | < 0.0004 | < 0.001 | 1.03 | 0.0002 | 0.024 | Absorption (Rattus norvegicus [8]): Insoluble |
| C=C1C[C@H](C(=O)NO)N(S(=O)(=O)c2ccc(Oc3ccccc3)cc2)C1 | 0.0004 | 0.014 | 0.053 | < 0.0004 | 0.015 |  |
| CCCCOc1ccc(S(=O)(=O)N2C/C(=N\OCc3ccccc3)C[C@@H]2C(=O)NO)cc1 | < 0.0004 | 0.017 | 0.49 | 0.0001 | 0.127 |  |
| CCCCOc1ccc(S(=O)(=O)N2C/C(=N\N3CCNCC3)C[C@@H]2C(=O)NO)cc1 |  | 0.003 | 0.343 | < 0.001 | 0.184 | Absorption (Rattus norvegicus [9]): 19% |
| CO/N=C1/C[C@H](C(=O)NO)N(S(=O)(=O)c2ccc(Oc3ccncc3)cc2)C1 | 0.0003 | 0.005 | 0.922 | < 0.0002 |  | Absorption (Rattus norvegicus [12]): 68% |
| CCCCOc1ccc(S(=O)(=O)N2C/C(=N\N3CCOCC3)C[C@@H]2C(=O)NO)cc1 |  | 0.002 | 0.196 | < 0.001 | 0.293 | Absorption (Rattus norvegicus [18]): 1% |
